Assays:
Conditions in all cases: 72 h
Calu-3 [1] = assay: cell viability relative to DMSO; higher = less toxic
HepG2 [2] = assay: as above
Vero E6 [3] = assay: as above
Caco-2 [4] = assay: as above
U2OS [5] = assay: as above
Calu-3 [6] = assay: drug sensitivity score (DSS) for viability; higher = more toxic; extreme values may be limits of the assay
HepG2 [7] = assay: as above
Vero E6 [8] = assay: as above
Caco-2 [9] = assay: as above
U2OS [10] = assay: as above
Calu-3 [11] = assay: relative viability EC50 (midpoint between 100% and the lowest measured viability); higher = less toxic
Caco-2 [12] = assay: as above
U2OS [13] = assay: as above
HepG2 [14] = assay: as above

SMILES | cell viability (Calu-3 [1]; 1 nM) [%] | cell viability (Calu-3 [1]; 10 nM) [%] | cell viability (Calu-3 [1]; 100 nM) [%] | cell viability (Calu-3 [1]; 1000 nM) [%] | cell viability (Calu-3 [1]; 10000 nM) [%] | cell viability (HepG2 [2]; 1 nM) [%] | cell viability (HepG2 [2]; 10 nM) [%] | cell viability (HepG2 [2]; 100 nM) [%] | cell viability (HepG2 [2]; 1000 nM) [%] | cell viability (HepG2 [2]; 10000 nM) [%] | cell viability (Vero E6 [3]; 1 nM) [%] | cell viability (Vero E6 [3]; 10 nM) [%] | cell viability (Vero E6 [3]; 100 nM) [%] | cell viability (Vero E6 [3]; 1000 nM) [%] | cell viability (Vero E6 [3]; 10000 nM) [%] | cell viability (Caco-2 [4]; 1 nM) [%] | cell viability (Caco-2 [4]; 10 nM) [%] | cell viability (Caco-2 [4]; 100 nM) [%] | cell viability (Caco-2 [4]; 1000 nM) [%] | cell viability (Caco-2 [4]; 10000 nM) [%] | cell viability (U2OS [5]; 1 nM) [%] | cell viability (U2OS [5]; 10 nM) [%] | cell viability (U2OS [5]; 100 nM) [%] | cell viability (U2OS [5]; 1000 nM) [%] | cell viability (U2OS [5]; 10000 nM) [%] | drug sensitivity score (Calu-3 [6]) | drug sensitivity score (HepG2 [7]) | drug sensitivity score (Vero E6 [8]) | drug sensitivity score (Caco-2 [9]) | drug sensitivity score (U2OS [10]) | relative viability EC50 (Calu-3 [11]) [µM] | relative viability EC50 (Caco-2 [12]) [µM] | relative viability EC50 (U2OS [13]) [µM] | relative viability EC50 (HepG2 [14]) [µM]
COc1ccc(CCc2nc3cc(-c4c(C)noc4C)ccc3n2C[C@H](C)N2CCOCC2)cc1Cl [SGC-CBP30] | 99.4 | 102 | 88.3 | 90.9 | 86.4 | 90.4 | 105 | 93.6 | 94.9 | 70.4 | 89.8 | 97.6 | 89.5 | 94.5 | 53.9 | 93.5 | 97.2 | 106 | 87.9 | 76.8 | 94.7 | 95.5 | 102 | 98.7 | 79.3 | 1.7 | 2.1 | 3.3 | 2.2 | 0.8 | > 10 | > 10 | > 10 | 
Cc1c(C(=O)N2CCOc3ccc(-c4ccc(N)nc4)cc3C2)ccc(S(C)(=O)=O)c1F [XL388] | 102 | 104 | 103 | 68.5 | 33.7 | 110 | 115 | 99.5 | 92.5 | 39 | 110 | 108 | 103 | 95.6 | 66.7 | 115 | 105 | 103 | 77.8 | 43 | 102 | 101 | 102 | 98.3 | 50.2 | 7.7 | 4.6 | 2.3 | 6.1 | 2.8 | 1.04 | 1.2 |  | 2.16
CC(=O)Nc1ccc(CC(=O)O)cc1 [actarit] | 105 | 104 | 117 | 107 | 97.8 |  |  |  |  |  |  |  |  |  |  | 96 | 94 | 93.7 | 99.9 | 96 | 98.1 | 101 | 94.8 | 103 | 96.4 | 0 |  |  | 0 | 0 | > 10 | > 10 | > 10 | 
Cc1c(N)nc([C@H](CC(N)=O)NC[C@H](N)C(N)=O)nc1C(=O)N[C@H](C(=O)N[C@H](C)[C@@H](O)[C@H](C)C(=O)N[C@H](C(=O)NCCc1nc(-c2nc(C(=O)NCCC[S+](C)C)cs2)cs1)[C@@H](C)O)[C@@H](OC1OC(CO)C(O)C(O)C1OC1OC(CO)C(O)C(OC(N)=O)C1O)c1cnc[nH]1 (stereo partly specified) [bleomycin] | 102 | 91.8 | 94.7 | 66.2 | 49.8 | 93.4 | 93.7 | 95.8 | 66.2 | 50.8 | 97.4 | 103 | 97.5 | 75.5 | 60 | 98.9 | 93.8 | 92.3 | 89.5 | 76.8 | 97 | 101 | 93.5 | 88.4 | 55.6 | 6.9 | 6.8 | 4.8 | 1.7 | 3.8 | 0.536 | > 10 |  | 
NS(=O)(=O)c1ccc(C(=O)O)cc1 [carzenide] | 106 | 101 | 93.4 | 100 | 94.2 | 97.6 | 99.8 | 102 | 102 | 94.9 |  |  |  |  |  | 106 | 96.1 | 112 | 106 | 96.9 |  |  |  |  |  | 0 | 0 |  | 0 |  | > 10 | > 10 |  | > 10
CCOP(=S)(OCC)Oc1ccc2c(C)c(Cl)c(=O)oc2c1 [coumophos] |  |  |  |  |  |  |  |  |  |  |  |  |  |  |  |  |  |  |  |  |  |  |  |  |  | 0 | 0 | 0 |  | 0 |  |  |  | 
CC(=O)C1=C(O)[C@@H]2[C@H]3c4c[nH]c5cccc(c45)C[C@H]3C(C)(C)N2C1=O [cyclopiazonic-acid] | 105 | 98.1 | 102 | 95.7 | 98.8 | 110 | 105 | 103 | 97.2 | 64.3 | 100 | 96.5 | 94.3 | 95.3 | 65.6 | 99.9 | 106 | 107 | 106 | 81.9 | 102 | 100 | 100 | 96.2 | 86.1 | 0 | 2.1 | 2.4 | 0.3 | 0.4 | > 10 | > 10 | > 10 | 
O=C(NO)c1ccc(O)c(O)c1 [didox] | 111 | 110 | 96.6 | 103 | 107 | 102 | 102 | 93.3 | 118 | 93.2 |  |  |  |  |  | 101 | 96.9 | 100 | 86.7 | 104 |  |  |  |  |  | 0 | 0 |  | 0 |  | > 10 | > 10 |  | > 10
CCS(=O)(=O)c1ccc2oc(-c3ccc4ccccc4c3)nc2c1 [ezutromid] |  |  |  |  |  | 99.8 | 121 | 102 | 102 | 94.3 |  |  |  |  |  | 103 | 89 | 91.4 | 91.8 | 90.2 | 101 | 97.7 | 105 | 97.4 | 97.2 |  | 0 |  | 0.7 | 0 |  | > 10 | > 10 | > 10
NS(=O)(=O)c1cc2c(cc1Cl)NCNS2(=O)=O [hydrochlorothiazide] |  |  |  |  |  |  |  |  |  |  |  |  |  |  |  |  |  |  |  |  |  |  |  |  |  | 0 |  | 0 |  | 0 |  |  |  | 
OCCOCCN1CCN(C(c2ccccc2)c2ccc(Cl)cc2)CC1 (stereo unspecified) [hydroxyzine] | 101 | 115 | 93.3 | 106 | 96.7 | 101 | 96.4 | 104 | 108 | 105 |  |  |  |  |  | 94.2 | 101 | 106 | 101 | 94 | 97.9 | 99.8 | 96.8 | 100 | 93.8 | 0 | 0 |  | 0 | 0 | > 10 | > 10 | > 10 | > 10
Cc1cc(C)c(S(=O)(=O)Nc2cccc(C(F)(F)F)c2)c(C)c1 [m-3M3FBS] | 94.5 | 102 | 95.8 | 98.9 | 99.4 | 101 | 98.9 | 93 | 88.8 | 90.6 |  |  |  |  |  | 111 | 98.8 | 108 | 98.2 | 106 | 101 | 97 | 100 | 103 | 100 | 0 | 0.4 |  | 0 | 0 | > 10 | > 10 | > 10 | > 10
NCc1ccc(S(N)(=O)=O)cc1 [mafenide] | 100 | 103 | 98.1 | 94.5 | 96.1 | 94.1 | 102 | 99.9 | 101 | 95.7 |  |  |  |  |  | 106 | 98.5 | 97.7 | 103 | 98.1 |  |  |  |  |  | 0 | 0 |  | 0 |  | > 10 | > 10 |  | > 10
CS(=O)(=O)Nc1ccc([N+](=O)[O-])cc1Oc1ccccc1 [nimesulide] |  |  |  |  |  |  |  |  |  |  |  |  |  |  |  |  |  |  |  |  |  |  |  |  |  | 0 | 0 | 0 |  | 0 |  |  |  | 
NC(=O)c1cccc2cn(-c3ccc([C@@H]4CCCNC4)cc3)nc12 [niraparib] | 97 | 104 | 110 | 106 | 97.6 | 83.9 | 109 | 99.4 | 95.4 | 62.9 | 102 | 102 | 102 | 95.8 | 73 | 92.7 | 106 | 89.9 | 96.4 | 88.1 | 101 | 95.4 | 101 | 97.3 | 106 | 0 | 2.5 | 1.7 | 0 | 0 | > 10 | > 10 | > 10 | 
CN(C)CCC(c1ccccc1)c1ccccn1 (stereo unspecified) [pheniramine] | 105 | 95.3 | 99 | 94.7 | 102 | 96.4 | 99.8 | 102 | 103 | 101 | 91.4 | 57.3 | 101 | 77.9 | 79.5 | 98.1 | 96.6 | 93.6 | 91.6 | 101 | 99.9 | 98.8 | 102 | 97.6 | 109 | 0 | 0 | 5.7 | 0 | 0 | > 10 | > 10 | > 10 | > 10
Cc1cc2c(cc1CC(=O)c1sccc1S(=O)(=O)Nc1onc(C)c1Cl)OCO2 [sitaxentan] |  |  |  |  |  |  |  |  |  |  |  |  |  |  |  | 114 | 98 | 102 | 100 | 108 | 99.6 | 99.6 | 98.9 | 101 | 101 |  |  |  | 0 | 0 |  | > 10 | > 10 | 
CC(=O)Nc1ccc(C(=O)Nc2ccccc2N)cc1 [tacedinaline] | 101 | 99.8 | 97.1 | 74.5 | 42.3 | 104 | 85.5 | 98 | 74.4 | 40.8 | 99 | 104 | 97.9 | 92.8 | 54.7 | 97.3 | 95.2 | 93.4 | 99.9 | 52.7 | 99 | 103 | 95.1 | 90.7 | 43.1 | 6.1 | 6.3 | 3.5 | 2.5 | 4.6 | 1.14 |  | 1.91 | 1.15
CC(=O)OC[C@H]1O[C@@H](n2ccc(=O)[nH]c2=O)[C@H](OC(C)=O)[C@@H]1OC(C)=O [uridine-triacetate] |  |  |  |  |  | 106 | 113 | 106 | 109 | 95.4 |  |  |  |  |  | 101 | 110 | 114 | 97.2 | 115 |  |  |  |  |  |  | 0 |  | 0 |  |  | > 10 |  | > 10

Reference: the supplement of paper PMC13380429
